Results as given in PubChem BioAssay AID192 (DTP/NCI, 2004).
“And” between values parts separate entries of the source, which are not always exact repeats. Identical values can stand only once. Toxic doses and inconclusive results are not listed.

System: BDF1 mice, B16 melanoma ip, median survival T/C
Assay: NCI In Vivo Anticancer Drug Screen. Data for tumor model B16 Melanoma (intraperitoneal) in B6D2F1 (BDF1) mice
Settings: endpoint: median survival time, higher = longer survival
Summary of the method: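 Compounds were tested in mice carrying transplantable tumors. Survival or tumor size was recorded, and each value is the treated-group measurement (T) divided by that of the vehicle-treated control group (C).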

[1] = dose: 0.75 mg/kg/injection, schedule: Q01DX009 (ip), vehicle: Klucel (hydroxypropylcellulose) (HPC)
[2] = dose: 1.5 mg/kg/injection, schedule: Q01DX009 (ip), vehicle: Klucel (hydroxypropylcellulose) (HPC)
[3] = dose: 6.25 mg/kg/injection, schedule: Q01DX009 (ip), vehicle: saline
[4] = dose: 12.5 mg/kg/injection, schedule: Q01DX009 (ip), vehicle: saline
[5] = dose: 25.0 mg/kg/injection, schedule: Q01DX009 (ip), vehicle: saline
[6] = dose: 100.0 mg/kg/injection, schedule: Q01DX009 (ip), vehicle: saline
[7] = dose: 12.5 mg/kg/injection, schedule: Q01DX009 (ip), vehicle: saline with Tween-80
[8] = dose: 25.0 mg/kg/injection, schedule: Q01DX009 (ip), vehicle: saline with Tween-80
[9] = dose: 50.0 mg/kg/injection, schedule: Q01DX009 (ip), vehicle: saline with Tween-80
[10] = dose: 100.0 mg/kg/injection, schedule: Q01DX009 (ip), vehicle: saline with Tween-80
[11] = dose: 200.0 mg/kg/injection, schedule: Q01DX009 (ip), vehicle: saline with Tween-80
[12] = dose: 100.0 mg/kg/injection, schedule: Q01DX009 (ip), vehicle: Klucel (hydroxypropylcellulose) (HPC)
[13] = dose: 200.0 mg/kg/injection, schedule: Q01DX009 (ip), vehicle: Klucel (hydroxypropylcellulose) (HPC)
[14] = dose: 400.0 mg/kg/injection, schedule: Q01DX009 (ip), vehicle: Klucel (hydroxypropylcellulose) (HPC)
[15] = dose: 25.0 mg/kg/injection, schedule: Q01DX009 (ip), vehicle: Klucel (hydroxypropylcellulose) (HPC)
[16] = dose: 50.0 mg/kg/injection, schedule: Q01DX009 (ip), vehicle: Klucel (hydroxypropylcellulose) (HPC)
[17] = dose: 50.0 mg/kg/injection, schedule: Q01DX009 (ip), vehicle: saline

For Nc1nc(N)c2nc(CN(CCO)c3ccc(C(=O)NC(CCC(=O)O)C(=O)O)cc3)cnc2n1 (centres undefined), the T/C (dose: 0.1 mg/kg/injection, schedule: Q01DX009 (ip), vehicle: Klucel (hydroxypropylcellulose) (HPC)) was 107 % of control, the T/C (dose: 0.2 mg/kg/injection, schedule: Q01DX009 (ip), vehicle: Klucel (hydroxypropylcellulose) (HPC)) was 101 % of control and the T/C (dose: 0.37 mg/kg/injection, schedule: Q01DX009 (ip), vehicle: Klucel (hydroxypropylcellulose) (HPC)) was 99 % of control. The T/C [1] was 109 % of control, the T/C (dose: 1.0 mg/kg/injection, schedule: Q01DX009 (ip), vehicle: Klucel (hydroxypropylcellulose) (HPC)) was 157 % of control and the T/C [2] was 97 % of control.

With CC[C@]12CN3CCc4c([nH]c5ccccc45)[C@@](C(=O)OC)(c4cc5c(cc4OC)N(C)[C@H]4[C@@](O)(C(=O)OC)[C@H](OC(C)=O)[C@]6(CC)C=CCN7CC[C@]54[C@@H]76)CC(C3)[C@H]1O2 (some centres undefined) the T/C (dose: 0.05 mg/kg/injection, schedule: Q01DX009 (ip), vehicle: saline) was 106 % of control, the T/C (dose: 0.1 mg/kg/injection, schedule: Q01DX009 (ip), vehicle: saline) was 101 % of control and the T/C (dose: 0.2 mg/kg/injection, schedule: Q01DX009 (ip), vehicle: saline) was 97 % of control. For the same molecule, the T/C (dose: 0.4 mg/kg/injection, schedule: Q01DX009 (ip), vehicle: saline) was 113 % of control, the T/C [1] was 107 % of control and the T/C (dose: 0.75 mg/kg/injection, schedule: Q01DX009 (ip), vehicle: saline) was 90 % of control. For the same molecule, the T/C (dose: 0.8 mg/kg/injection, schedule: Q01DX009 (ip), vehicle: saline) was 116 % of control, the T/C [2] was 115 % of control and the T/C (dose: 1.5 mg/kg/injection, schedule: Q04DX003 (ip), vehicle: saline) was 102 % of control. The T/C (dose: 1.6 mg/kg/injection, schedule: Q01DX009 (ip), vehicle: saline) was 113 % of control, the T/C (dose: 3.0 mg/kg/injection, schedule: Q01DX009 (ip), vehicle: saline) was 187 % of control and the T/C (dose: 3.0 mg/kg/injection, schedule: Q04DX003 (ip), vehicle: saline) was 111 % of control. The T/C (dose: 3.2 mg/kg/injection, schedule: Q01DX009 (ip), vehicle: saline) was 162 % of control, the T/C (dose: 4.0 mg/kg/injection, schedule: Q01DX009 (ip), vehicle: saline) was 175 % of control and 202 % of control and the T/C (dose: 6.0 mg/kg/injection, schedule: Q01DX009 (ip), vehicle: saline) was 221 % of control [middle of 4 runs]. For the same molecule, the T/C (dose: 6.4 mg/kg/injection, schedule: Q01DX009 (ip), vehicle: saline) was 157 % of control, the T/C (dose: 9.0 mg/kg/injection, schedule: Q01DX009 (ip), vehicle: saline) was 212 % of control and 248 % of control and the T/C (dose: 12.0 mg/kg/injection, schedule: Q01DX009 (ip), vehicle: Klucel (hydroxypropylcellulose) (HPC)) was 168 % of control. The T/C (dose: 12.0 mg/kg/injection, schedule: Q01DX009 (ip), vehicle: saline) was 161 % of control, the T/C (dose: 12.0 mg/kg/injection, schedule: Q04DX003 (ip), vehicle: saline) was 152 % of control and the T/C (dose: 12.8 mg/kg/injection, schedule: Q01DX009 (ip), vehicle: saline) was 169 % of control.

In the case of Cc1cc(C)c(CCl)cc1CCl, the T/C (dose: 10.0 mg/kg/injection, schedule: Q01DX009 (ip), vehicle: saline with Tween-80) was 110 % of control, the T/C (dose: 20.0 mg/kg/injection, schedule: Q01DX009 (ip), vehicle: saline with Tween-80) was 95 % of control and the T/C (dose: 20.0 mg/kg/injection, schedule: Q04DX003 (ip), vehicle: saline with Tween-80) was 100 % of control. For the same molecule, the T/C (dose: 40.0 mg/kg/injection, schedule: Q01DX009 (ip), vehicle: saline with Tween-80) was 102 % of control and the T/C (dose: 40.0 mg/kg/injection, schedule: Q04DX003 (ip), vehicle: saline with Tween-80) was 100 % of control.

For C=C(Br)CNS(C)(=O)=O, the T/C [3] was 120 % of control, the T/C [4] was 110 % of control and the T/C [5] was 113 % of control.

In the case of CCCCCC(C)(O)CCCCC, the T/C [6] was 107 % of control and the T/C (dose: 200.0 mg/kg/injection, schedule: Q01DX009 (ip), vehicle: saline) was 92 % of control.

For Oc1cc2ccccc2c(-c2c(O)c(O)cc3ccccc23)c1O, the T/C [7] was 114 % of control, the T/C [8] was 117 % of control and the T/C [9] was 117 % of control. For the same molecule, the T/C [10] was 110 % of control.

O=C(NC(CSCc1ccccc1)C(=O)O)OCc1ccccc1 (centres undefined) was tested, and the T/C [7] was 107 % of control, the T/C [8] was 107 % of control and the T/C [9] was 98 % of control and 103 % of control. The T/C [10] was 87 % of control.

For CCN(CC)c1nc(Cl)nc(NC(C)C)n1, the T/C [9] was 95 % of control, the T/C [10] was 97 % of control and the T/C [11] was 89 % of control.

In the case of CCCCCCCCCCCCCCCCN(C(=S)c1ccccc1)c1ccccc1, the T/C [12] was 94 % of control, the T/C [13] was 95 % of control and the T/C [14] was 97 % of control.

CC(C)CC(NC(=O)CCl)C(=O)O (centres undefined) was tested, and the T/C (dose: 6.25 mg/kg/injection, schedule: Q01DX009 (ip), vehicle: saline with Tween-80) was 110 % of control, the T/C [7] was 95 % of control and the T/C [8] was 95 % of control.

In the case of CCC(CO)NC(=O)C1C=C2c3cccc4[nH]cc(c34)CC2N(C)C1 (centres undefined), the T/C (dose: 6.25 mg/kg/injection, schedule: Q01DX009 (ip), vehicle: Klucel (hydroxypropylcellulose) (HPC)) was 93 % of control, the T/C (dose: 12.5 mg/kg/injection, schedule: Q01DX009 (ip), vehicle: Klucel (hydroxypropylcellulose) (HPC)) was 98 % of control and the T/C [15] was 91 % of control. For the same molecule, the T/C [16] was 86 % of control, the T/C [12] was 86 % of control and the T/C [13] was 111 % of control.

For CN(C)N=Nc1ccnc2c(Cl)cccc12, the T/C (dose: 10.8 mg/kg/injection, schedule: Q01DX009 (ip), vehicle: DMSO) was 101 % of control, the T/C (dose: 18.0 mg/kg/injection, schedule: Q01DX009 (ip), vehicle: DMSO) was 103 % of control and the T/C (dose: 30.0 mg/kg/injection, schedule: Q01DX009 (ip), vehicle: DMSO) was 101 % of control. For the same molecule, the T/C (dose: 50.0 mg/kg/injection, schedule: Q01DX009 (ip), vehicle: DMSO) was 99 % of control.

With Cc1ccc(NS(=O)(=O)c2ccccc2)cc1Cl the T/C [13] was 90 % of control and the T/C [14] was 88 % of control.

For c1ccc2cc(-c3csc4ccccc34)ccc2c1, the T/C (dose: 100.0 mg/kg/injection, schedule: Q04DX003 (ip), vehicle: Klucel (hydroxypropylcellulose) (HPC)) was 91 % of control, the T/C (dose: 200.0 mg/kg/injection, schedule: Q04DX003 (ip), vehicle: Klucel (hydroxypropylcellulose) (HPC)) was 97 % of control and the T/C (dose: 400.0 mg/kg/injection, schedule: Q04DX003 (ip), vehicle: Klucel (hydroxypropylcellulose) (HPC)) was 102 % of control.

With CCCC(C)C(C(=O)O)c1ccccc1 (centres undefined) the T/C [10] was 110 % of control, the T/C [11] was 106 % of control and the T/C (dose: 300.0 mg/kg/injection, schedule: Q01DX009 (ip), vehicle: saline with Tween-80) was 91 % of control.

For CCCCN(CCCC)c1ccc(C(=O)O)cc1, the T/C [9] was 102 % of control, the T/C [10] was 94 % of control and the T/C [11] was 103 % of control.

With CNC(=O)Nc1ccc(Cl)cc1C the T/C [15] was 95 % of control, the T/C [16] was 97 % of control and the T/C [12] was 92 % of control and 121 % of control.

For O=c1[nH]c(=O)c2nc(-c3cccnc3)cnc2[nH]1, the T/C [4] was 104 % of control, the T/C [5] was 93 % of control and the T/C [17] was 97 % of control. For the same molecule, the T/C [6] was 89 % of control.

CCC1OCCN1C(C)C (centres undefined) was tested, and the T/C [5] was 102 % of control and the T/C [17] was 106 % of control.

CCN(CC)CCCC(C)Nc1c2ccc(C)cc2nc2ccc(OC)cc12 (centres undefined) was tested, and the T/C [3] was 89 % of control, the T/C [4] was 99 % of control and 114 % of control and the T/C [5] was 124 % of control. The T/C [17] was 122 % of control and 123 % of control.

For O=C1C(N2CC2)=C(N2CCCC(O)C2)C(=O)C(N2CC2)=C1N1CCCC(O)C1 (centres undefined), the T/C (dose: 0.25 mg/kg/injection, schedule: Q01DX009 (ip), vehicle: saline) was 113 % of control and the T/C (dose: 0.5 mg/kg/injection, schedule: Q01DX009 (ip), vehicle: saline) was 120 % of control.

For Cc1c(Cl)cccc1NC(=O)c1ccc([N+](=O)[O-])cc1, the T/C [10] was 105 % of control and the T/C [11] was 100 % of control.

NCC(O)c1ccc(O)c(O)c1 (centres undefined) was tested, and the T/C (dose: 1.56 mg/kg/injection, schedule: Q01DX009 (ip), vehicle: saline) was 97 % of control and 105 % of control, the T/C (dose: 3.12 mg/kg/injection, schedule: Q01DX009 (ip), vehicle: saline) was 95 % of control and 107 % of control and the T/C [3] was 100 % of control and 106 % of control. The T/C [4] was 99 % of control and 102 % of control.

In the case of CCO/C=C1\SC(=S)N(c2cccc(O)c2)C1=O, the T/C [15] was 102 % of control, the T/C [16] was 102 % of control and the T/C [12] was 101 % of control.
